Reference: PubChem BioAssay AID248 (DTP/NCI, 2004)
Where “and” joins values, the source holds several entries; their conditions need not be identical. Equal entries are not always repeated. Toxic doses and inconclusive results are not listed. Rule as the data show it: active = T/C of 150% or more; inactive = T/C below 125%.

Tested on: L1210 leukemia ip in BDF1 mice, survival T/C
Assay: NCI In Vivo Anticancer Drug Screen. Data for tumor model L1210 Leukemia (intraperitoneal) in B6D2F1 (BDF1) mice
Settings: endpoint: mean survival time, higher = longer survival
Summary of the method: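 Value reflects the ratio of survival in compound-treated mice to survival in vehicle-treated controls, with both groups carrying the same transplanted tumor.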

[1] = dose: 100.0 mg/kg/injection, schedule: Q01DX009 (ip), vehicle: Klucel (hydroxypropylcellulose) (HPC)
[2] = dose: 100.0 mg/kg/injection, schedule: Q01DX009 (ip), vehicle: saline with Tween-80
[3] = dose: 100.0 mg/kg/injection, schedule: Q04DX003 (ip), vehicle: Klucel (hydroxypropylcellulose) (HPC)
[4] = dose: 100.0 mg/kg/injection, schedule: Q04DX003 (ip), vehicle: saline with Tween-80
[5] = dose: 200.0 mg/kg/injection, schedule: Q01DX009 (ip), vehicle: saline with Tween-80
[6] = dose: 200.0 mg/kg/injection, schedule: Q04DX003 (ip), vehicle: Klucel (hydroxypropylcellulose) (HPC)
[7] = dose: 200.0 mg/kg/injection, schedule: Q04DX003 (ip), vehicle: saline with Tween-80
[8] = dose: 400.0 mg/kg/injection, schedule: Q01DX009 (ip), vehicle: Klucel (hydroxypropylcellulose) (HPC)
[9] = dose: 400.0 mg/kg/injection, schedule: Q01DX009 (ip), vehicle: saline with Tween-80
[10] = dose: 400.0 mg/kg/injection, schedule: Q04DX003 (ip), vehicle: Klucel (hydroxypropylcellulose) (HPC)
[11] = dose: 400.0 mg/kg/injection, schedule: Q04DX003 (ip), vehicle: saline with Tween-80
[12] = dose: 100.0 mg/kg/injection, schedule: Q01DX009 (ip), vehicle: saline
[13] = dose: 200.0 mg/kg/injection, schedule: Q01DX009 (ip), vehicle: saline
[14] = dose: 100.0 mg/kg/injection, schedule: Q01DX001 (ip), vehicle: carboxymethylcellulose (CMC)
[15] = dose: 200.0 mg/kg/injection, schedule: Q01DX009 (ip), vehicle: Klucel (hydroxypropylcellulose) (HPC)
[16] = dose: 50.0 mg/kg/injection, schedule: Q01DX009 (ip), vehicle: saline

Measured: T/C

Cc1cc(Cl)ccc1NC(=O)OCCSc1ccc(Cl)cc1
inactive: dose: 100.0 mg/kg/injection, schedule: Q01DX001 (ip), vehicle: gum acacia 94 % of control | dose: 100.0 mg/kg/injection, schedule: Q01DX009 (ip), vehicle: gum acacia 94 % of control and 95 % of control | dose: 100.0 mg/kg/injection, schedule: Q04DX003 (ip), vehicle: gum acacia 93 % of control and 94 % of control | dose: 200.0 mg/kg/injection, schedule: Q01DX001 (ip), vehicle: gum acacia 101 % of control | dose: 200.0 mg/kg/injection, schedule: Q01DX009 (ip), vehicle: gum acacia 97 % of control and 91 % of control | dose: 200.0 mg/kg/injection, schedule: Q04DX003 (ip), vehicle: gum acacia 97 % of control | dose: 400.0 mg/kg/injection, schedule: Q01DX001 (ip), vehicle: gum acacia 101 % of control | dose: 400.0 mg/kg/injection, schedule: Q01DX009 (ip), vehicle: gum acacia 93 % of control and 98 % of control | dose: 400.0 mg/kg/injection, schedule: Q04DX003 (ip), vehicle: gum acacia 95 % of control and 90 % of control

CCc1cccc(CC)c1NC(=O)c1ccccc1Cl
inactive: dose: 100.0 mg/kg/injection, schedule: Q04DX002 (ip), vehicle: Klucel (hydroxypropylcellulose) (HPC) 102 % of control | dose: 200.0 mg/kg/injection, schedule: Q04DX002 (ip), vehicle: Klucel (hydroxypropylcellulose) (HPC) 97 % of control | dose: 400.0 mg/kg/injection, schedule: Q04DX002 (ip), vehicle: Klucel (hydroxypropylcellulose) (HPC) 94 % of control

Cc1ccc(N2C(=O)CC(Sc3ccccc3N)C2=O)cc1Cl (stereo not drawn)
inactive: [1] 88 % of control | [2] 88 % of control | [3] 93 % of control | [4] 86 % of control and 89 % of control | [5] 96 % of control | [6] 93 % of control | [7] 87 % of control and 91 % of control | [8] 90 % of control | [9] 95 % of control | [10] 94 % of control | [11] 86 % of control and 87 % of control

Nc1nc2c(ncn2C2OC(COP(=O)(O)O)C(O)C2O)c(=O)[nH]1 (stereo not drawn)
inactive: dose: 100.0 mg/kg/injection, schedule: Q01DX005 (ip), vehicle: saline 100 % of control | [12] 101 % of control | dose: 200.0 mg/kg/injection, schedule: Q01DX005 (ip), vehicle: saline 112 % of control | [13] 95 % of control

CC(=O)NC(=O)NC(=O)CC#N
inactive: dose: 100.0 mg/kg/injection, schedule: Q01DX001 (ip), vehicle: Klucel (hydroxypropylcellulose) (HPC) 90 % of control | dose: 200.0 mg/kg/injection, schedule: Q01DX001 (ip), vehicle: Klucel (hydroxypropylcellulose) (HPC) 88 % of control | dose: 400.0 mg/kg/injection, schedule: Q01DX001 (ip), vehicle: Klucel (hydroxypropylcellulose) (HPC) 93 % of control

C[C@@H](c1ccccc1)[C@@H](C(=O)O)c1ccccc1
inactive: dose: 50.0 mg/kg/injection, schedule: Q01DX001 (ip), vehicle: saline 109 % of control | dose: 100.0 mg/kg/injection, schedule: Q01DX001 (ip), vehicle: saline 94 % of control | dose: 200.0 mg/kg/injection, schedule: Q01DX001 (ip), vehicle: saline 97 % of control | dose: 400.0 mg/kg/injection, schedule: Q01DX001 (ip), vehicle: saline 97 % of control

O=C1CCCC(=S)N1
inactive: dose: 50.0 mg/kg/injection, schedule: Q01DX001 (ip), vehicle: carboxymethylcellulose (CMC) 113 % of control | [14] 106 % of control

CSc1ccc(NC(=O)Nc2ccc(Cl)cc2C(=O)c2ccccc2)cc1
inactive: [1] 91 % of control | [15] 88 % of control

COc1cc(N(CCCl)CCCl)ccc1C=Nc1ccc2c(c1)nc(C)n2C
inactive: dose: 68.8 mg/kg/injection, schedule: Q04DX002 (ip), vehicle: Klucel (hydroxypropylcellulose) (HPC) 104 % of control | dose: 137.5 mg/kg/injection, schedule: Q04DX002 (ip), vehicle: Klucel (hydroxypropylcellulose) (HPC) 101 % of control | dose: 275.0 mg/kg/injection, schedule: Q04DX002 (ip), vehicle: Klucel (hydroxypropylcellulose) (HPC) 117 % of control

NC(CSC(c1ccccc1)(c1ccccc1)c1ccc(-c2ccccc2)cc1)C(=O)O (stereo not drawn)
inactive: dose: 12.5 mg/kg/injection, schedule: Q01DX009 (ip), vehicle: saline 103 % of control | dose: 25.0 mg/kg/injection, schedule: Q01DX009 (ip), vehicle: saline 104 % of control | [16] 107 % of control

CC[NH-].CC[NH-].[Br][Pt+2][Br]
inactive: dose: 100.0 mg/kg/injection, schedule: Q04DX003 (ip), vehicle: other 122 % of control | dose: 200.0 mg/kg/injection, schedule: Q04DX003 (ip), vehicle: other 105 % of control

CNC(=O)C(c1ccccc1)C(F)(F)F (stereo not drawn)
inactive: dose: 100.0 mg/kg/injection, schedule: Q01DX001 (ip), vehicle: saline with Tween-80 97 % of control | dose: 200.0 mg/kg/injection, schedule: Q01DX001 (ip), vehicle: saline with Tween-80 109 % of control | dose: 400.0 mg/kg/injection, schedule: Q01DX001 (ip), vehicle: saline with Tween-80 105 % of control

CC(=O)Nc1cc2[nH]c(=O)c3ccccc3c2cc1Cl
inactive: [14] 100 % of control | dose: 200.0 mg/kg/injection, schedule: Q01DX001 (ip), vehicle: carboxymethylcellulose (CMC) 105 % of control | dose: 400.0 mg/kg/injection, schedule: Q01DX001 (ip), vehicle: carboxymethylcellulose (CMC) 93 % of control

COc1ccc(C2C(C(=O)N3CCN(C)CC3)C2c2ccc(OC)cc2)cc1 (stereo not drawn)
inactive: dose: 12.5 mg/kg/injection, schedule: Q04DX002 (ip), vehicle: saline 102 % of control | dose: 25.0 mg/kg/injection, schedule: Q04DX002 (ip), vehicle: saline 102 % of control | dose: 50.0 mg/kg/injection, schedule: Q04DX002 (ip), vehicle: saline 102 % of control

COc1cc(OC)c(OC)cc1/C=N/Nc1ccc(C(=O)O)cc1
inactive: [2] 95 % of control | [4] 96 % of control | [5] 97 % of control | [7] 94 % of control | [9] 101 % of control | [11] 98 % of control

CCCCCCCCC1=C(CCCCCCC(=O)OC)[14CH2]1
inactive: dose: 75.0 mg/kg/injection, schedule: Q04DX003 (ip), vehicle: saline 100 % of control | dose: 150.0 mg/kg/injection, schedule: Q04DX003 (ip), vehicle: saline 93 % of control | dose: 300.0 mg/kg/injection, schedule: Q04DX003 (ip), vehicle: saline 90 % of control

CCNC(=O)CCP(=O)(CCC(=O)NCC)CCC(=O)NCC
inactive: [16] 94 % of control | dose: 50.0 mg/kg/injection, schedule: Q04DX003 (ip), vehicle: saline 101 % of control | [12] 90 % of control | dose: 100.0 mg/kg/injection, schedule: Q04DX003 (ip), vehicle: saline 101 % of control | [13] 90 % of control | dose: 200.0 mg/kg/injection, schedule: Q04DX003 (ip), vehicle: saline 101 % of control | dose: 400.0 mg/kg/injection, schedule: Q04DX003 (ip), vehicle: saline 101 % of control

CC(C)=CCC/C(C)=C/CN1C(=O)c2ccccc2C1=O
inactive: [2] 103 % of control | [4] 93 % of control | [5] 106 % of control | [7] 102 % of control | [9] 95 % of control | [11] 96 % of control

CCCC(C)(C)C(=O)Nc1cccc(OC(=O)NC(C)(C)C)c1
inactive: [2] 88 % of control | [5] 86 % of control | [9] 89 % of control

CCN(CC)c1ccc(Cc2ccc(N(CC)CC)cc2Br)c(Br)c1
inactive: [1] 100 % of control | [3] 96 % of control | [15] 105 % of control | [6] 104 % of control | [8] 107 % of control | [10] 94 % of control

CCCCCCCCCC(C)NC(=O)CCl (stereo not drawn)
inactive: dose: 50.0 mg/kg/injection, schedule: Q01DX009 (ip), vehicle: Klucel (hydroxypropylcellulose) (HPC) 87 % of control | [1] 97 % of control | [15] 90 % of control

CCSP(N)(=O)c1ccccc1 (stereo not drawn)
inactive: dose: 75.0 mg/kg/injection, schedule: Q01DX001 (ip), vehicle: saline 101 % of control

CCOC(=O)c1ccc(Nc2sc(C(=O)c3ccc(Br)cc3)c(N)c2C#N)cc1
inactive: dose: 100.0 mg/kg/injection, schedule: Q04DX002 (ip), vehicle: saline with Tween-80 102 % of control | dose: 200.0 mg/kg/injection, schedule: Q04DX002 (ip), vehicle: saline with Tween-80 94 % of control | dose: 400.0 mg/kg/injection, schedule: Q04DX002 (ip), vehicle: saline with Tween-80 88 % of control
